Measured values: patent US6723702B2, “Use of relaxin treat diseases related to vasoconstriction” (RAS Medical, Inc., priority 2000, dated 2004)

Key:
[1] = tested on: human primary umbilical vein, aortic, foreskin, and pulmonary endothelial cells; test: 3H-thymidine uptake, human endothelial cells; assay type: cell-based; details: serum-free medium
Description: Endothelial cells were derived from explant cultures of human neonatal foreskin and rat aorta. Primary human endothelial cells from umbilical vein, aorta, and lung were purchased from Clonetics-BioWhittaker Corporation (San Diego, Calif.) and cultured according to vendor instructions. ^3H-thymidine uptake was performed, as previously described, in serum-free medium. Unemori et al. (1994) Exp. Cell Res. 21:166-171.
Relaxin was then assayed for the ability to induce proliferation of endothelial cells directly. Relaxin's potential mitogenic effect was tested on human primary umbilical vein, aortic, foreskin, and pulmonary endothelial cells, as well as rat aortic endothelial cells. […] Alterations in other aspects of endothelial cell phenotype that are believed to correlate with angiogenesis were also tested. Relaxin had no effect on collagen expression, judged by SDS-PAGE of ^3H-proline-labeled cellular proteins; or metalloproteinase or tissue inhibitor of metalloproteinase-1 secretion, assessed by gelatin zymography. […] Therefore, relaxin had no apparent effect directly on endothelial cells.

[2] = tested on: human VEGF165, VEGF121, bFGF and HGF transcripts in human cardiac cells; test: Human cardiac cells: quantitative RT-PCR after relaxin treatment in vitro; assay type: cell-based
Description: Oligonucleotides were designed to rat or human bFGF, human VEGF165 amino acid or 121 amino acid isoforms, and their respective rat homologues (VEGF164 and VEGF120), and human HGF (for use with the PE Applied Biosystems “GeneAmp PCR System 9600”). Rat and human GAPDH primers and probes were purchased from BioSource International Inc. and PE Applied Biosystems, respectively. Tissue samples and monolayer cells were suspended in RNA STAT-60 (Tel-Test, Inc., Friendswood, Tex.) and processed following vendor instructions. Reverse transcription-polymerase chain reaction (RT-PCR) was performed using either rat or human total RNA as template. 150 ng of total RNA was used for the analysis of VEGF, bFGF and HGF mRNA expression; 10 ng of total RNA was used for GAPDH mRNA expression. Reverse transcription-polymerase chain reaction (RT-PCR) reagents were purchased from PE Biosystems (Foster City, Calif.).
To determine if the effects of relaxin observed in the rat were also seen in human cells, total RNA from cardiac cells was extracted following treatment of cells with 1, 10, and 100 ng/ml relaxin for 24 hours. Human cardiac cells were cultured for 24 hours either without or with relaxin (1-100 ng/ml). Untreated cells were incubated for the same 24 hour period under hypoxic (2% O2) conditions. Using 150 ng of total RNA for human VEGF and bFGF transcripts and 10 ng of total RNA for GAPDH transcripts, primer/probe sets were used to generate RT-PCR products for human VEGF 165aa and 121aa isoforns and human bFGF. Data were analyzed using Sequence Detector v1.6.3 software (Applied Biosystems/PE). VEGF and bFGF expression levels are graphed relative to GAPDH transcript levels. Data are shown as means±SEM, where n=3 per treatment group; *p<0.05; Student-Newman-Keuls test. […] Absolute baseline levels of bFGF mRNA transcripts expressed by these cells were approximately 2-fold greater than those of either the VEGF121 or the VEGF165 isoforms. Total RNA from cells incubated under hypoxic conditions was analyzed as a positive control for the stimulation of VEGF isoforms. As predicted, mRNA transcript levels for both VEGF isoforms increased 220% over untreated control levels following 24 hr exposure to hypoxia, as shown in FIG. 6. bFGF expression was not induced by hypoxia. […] Relaxin had no effect on cellular proliferation, as assessed by ^3H-thymidine incorporation, on cellular morphology, or on desmin or vimentin staining patterns.

## rhRLX: recombinant human relaxin, identical in amino acid sequence to the product of the human H2 gene; A chain of 24, B chain of 29 amino acids
[1]
  3H-thymidine uptake: did not alter
[2]; 100 ng/ml, 24 hours
  Basic FGF expression, maximum elevation over baseline: 2.2 fold
  VEGF121 mRNA, maximum increase in expression over untreated controls: 3 fold
  VEGF165 mRNA, maximum increase in expression over untreated controls: 2.3 fold
[2]; untreated vs relaxin treated cells
  Transcripts for human HGF: no difference in expression
